Assay results: ChEMBL document CHEMBL4393704, “Synthesis and biological evaluation of dihydroquinazoline-2-amines as potent non-nucleoside reverse transcriptase inhibitors of wild-type and mutant HIV-1 strains” (Eur J Med Chem, 2019)

What was measured:
[1] = system: Human immunodeficiency virus 1; assay: Antiviral activity against HIV-1 3B harboring reverse transcriptase RES056 mutant infected in MT4 cells measured after 5 days by MTT assay; type: functional, organism-based; conditions: Human immunodeficiency virus 1, 3B, MT4, 120 h
[2] = Cytotoxicity against human MT4 cells measured after 5 days by MTT assay; type: cell-based
[3] = system: Human immunodeficiency virus 1; assay: Antiviral activity against wild type HIV-1 3B infected in MT4 cells measured after 5 days by MTT assay; type: functional, organism-based; conditions: Human immunodeficiency virus 1, 3B, MT4, 120 h
[4] = Selectivity index, ratio of CC50 for human MT4 cells to EC50 for HIV-1 3B infected in MT4 cells; type: toxicity, cell-based; conditions: HIV-1 3B infected MT4 cells, read-out: Ratio CC50/EC50
[5] = system: Human immunodeficiency virus 1; assay: Antiviral activity against HIV-1 3B harboring reverse transcriptase E138K mutant infected in MT4 cells measured after 5 days by MTT assay; type: functional, organism-based; conditions: Human immunodeficiency virus 1, 3B, MT4, 120 h
[6] = target: Human immunodeficiency virus type 1 reverse transcriptase (Human immunodeficiency virus 1, UniProt Q72547); assay: Inhibition of recombinant wild-type HIV1 3B reverse transcriptase assessed as reduction in biotin-dUTP incorporation using poly(rA)/oligo(dT)16 as template primer incubated for 1 hr followed by the addition of (DIG)-dUTP and biotin-labeled dNTPs by ELISA
[7] = system: Human immunodeficiency virus 1; assay: Potency index, ratio of EFV EC50 to compound EC50 for antiviral activity against wild type HIV-1 3B infected in MT4 cells measured after 5 days by MTT assay; type: functional
[8] = system: Human immunodeficiency virus 1; assay: Potency index, ratio of ETV EC50 to compound EC50 for antiviral activity against HIV-1 3B harboring reverse transcriptase E138K mutant infected in MT4 cells measured after 5 days by MTT assay; type: functional
[9] = system: Human immunodeficiency virus 1; assay: Potency index, ratio of ETV EC50 to compound EC50 for antiviral activity against wild type HIV-1 3B infected in MT4 cells measured after 5 days by MTT assay; type: functional

Row | Compound | EC50 [1] [nM] | CC50 at 120 h [2] [nM] | EC50 [3] [nM] | selectivity ratio [4] | EC50 [5] [nM] | IC50 [6] [nM] | Ratio EC50 [7] | Ratio EC50 [8] | Ratio EC50 [9]
1 | COc1ccc(NC2=Nc3ccc(Cl)cc3C(C#CC3CC3)(C(F)(F)F)N2)cc1 (stereo not given) | > 8400 | 8400 | 260 | 32 | 410 |  |  |  | 
2 | FC(F)(F)C1(C#CC2CC2)NC(Nc2ccccc2Br)=Nc2ccc(Cl)cc21 (stereo not given) | 1800 | 11000 | 88 | 133 | 160 | 3.4 |  |  | 
3 | Cc1ccc(NC2=Nc3ccc(Cl)cc3C(C#CC3CC3)(C(F)(F)F)N2)cc1 (stereo not given) | > 4900 | 5000 | 250 | 20 | 400 |  |  |  | 
4 | Fc1ccc(NC2=Nc3ccc(Cl)cc3C(C#CC3CC3)(C(F)(F)F)N2)cc1F (stereo not given) | > 1800 | 1800 | 360 | 5 | > 1800 |  |  |  | 
5 | FC(F)(F)C1(C#CC2CC2)NC(Nc2ccccc2)=Nc2ccc(Cl)cc21 (stereo not given) | > 2400 | 2400 | 110 | 21 | 380 |  |  |  | 
6 | N#Cc1cccc(NC2=Nc3ccc(Cl)cc3C(C#CC3CC3)(C(F)(F)F)N2)c1 (stereo not given) | > 2200 | 2200 | 440 | 5 | 650 |  |  |  | 
7 | Cc1cccc(NC2=Nc3ccc(Cl)cc3C(C#CC3CC3)(C(F)(F)F)N2)c1 (stereo not given) | > 2100 | 2100 | 210 | 10 | 360 |  |  |  | 
8 | Fc1ccccc1NC1=Nc2ccc(Cl)cc2C(C#CC2CC2)(C(F)(F)F)N1 (stereo not given) | > 3100 | 3100 | 100 | 31 | 140 |  |  |  | 
9 | N#Cc1ccc(NC2=Nc3ccc(Cl)cc3C(C#CC3CC3)(C(F)(F)F)N2)cc1 (stereo not given) | 66 | 1900 | 0.84 | 2300 | 3.5 | 10 | 2 | 2 | 9
10 | Cc1ccc(NC2=Nc3ccc(Cl)cc3C(C#CC3CC3)(C(F)(F)F)N2)cc1C (stereo not given) | > 5800 | 5900 | 610 | 8 | 560 |  |  |  | 
11 | Cc1ccccc1NC1=Nc2ccc(Cl)cc2C(C#CC2CC2)(C(F)(F)F)N1 (stereo not given) | > 4100 | 4100 | 140 | 30 | 400 |  |  |  | 
12 | FC(F)(F)C1(C#CC2CC2)NC(Nc2cccc(Cl)c2)=Nc2ccc(Cl)cc21 (stereo not given) | > 2000 | 2000 | 210 | 9 | 480 |  |  |  | 
13 | Cc1cc(C)cc(NC2=Nc3ccc(Cl)cc3C(C#CC3CC3)(C(F)(F)F)N2)c1 (stereo not given) | > 2100 | 2100 | 360 | 6 | 600 |  |  |  | 
14 | Fc1cccc(NC2=Nc3ccc(Cl)cc3C(C#CC3CC3)(C(F)(F)F)N2)c1 (stereo not given) | > 2000 | 2000 | 160 | 12 | 340 |  |  |  | 
15 | FC(F)(F)C1(C#CC2CC2)NC(Nc2ccc(Cl)c(Cl)c2)=Nc2ccc(Cl)cc21 (stereo not given) | > 2100 | 2100 | 30 | 70 | 170 | 3.7 |  |  | 
16 | COc1cccc(NC2=Nc3ccc(Cl)cc3C(C#CC3CC3)(C(F)(F)F)N2)c1 (stereo not given) | > 2600 | 2700 | 63 | 44 | 290 | 1.1 |  |  | 
17 | Fc1ccc(NC2=Nc3ccc(Cl)cc3C(C#CC3CC3)(C(F)(F)F)N2)cc1Cl (stereo not given) | > 1800 | 1900 | 190 | 10 | 460 |  |  |  | 
18 | FC(F)(F)C1(C#CC2CC2)NC(Nc2ccc(Br)cc2)=Nc2ccc(Cl)cc21 (stereo not given) | > 3400 | > 3400 | 450 | > 8 | > 3400 |  |  |  | 
19 | COc1ccccc1NC1=Nc2ccc(Cl)cc2C(C#CC2CC2)(C(F)(F)F)N1 (stereo not given) | > 8600 | 8600 | 150 | 58 | 190 |  |  |  | 
20 | NC(=O)c1ccc(NC2=Nc3ccc(Cl)cc3C(C#CC3CC3)(C(F)(F)F)N2)cc1 (stereo not given) | > 2900 | 12000 | 220 | 58 | 160 |  |  |  | 
21 | FC(F)(F)c1cccc(NC2=Nc3ccc(Cl)cc3C(C#CC3CC3)(C(F)(F)F)N2)c1 (stereo not given) | > 3200 | 3300 | 51 | 64 | 350 | 4.5 |  |  | 
22 | FC(F)(F)C1(C#CC2CC2)NC(Nc2cccc(Br)c2)=Nc2ccc(Cl)cc21 (stereo not given) | > 2100 | 2100 | 150 | 14 | 420 |  |  |  | 
23 | Fc1ccc(NC2=Nc3ccc(Cl)cc3C(C#CC3CC3)(C(F)(F)F)N2)cc1 (stereo not given) | > 2300 | 2400 | 250 | 9 | 460 |  |  |  | 
24 | O=[N+]([O-])c1cccc(NC2=Nc3ccc(Cl)cc3C(C#CC3CC3)(C(F)(F)F)N2)c1 (stereo not given) | > 1600 | 1600 | 120 | 14 | 360 |  |  |  | 
25 | O=C1Nc2ccc(Cl)cc2[C@@](C#CC2CC2)(C(F)(F)F)O1 [EFAVIRENZ] | 55 | > 2000 |  |  | 2 |  |  |  | 
26 | Cc1cc(C#N)cc(C)c1Oc1nc(Nc2ccc(C#N)cc2)nc(N)c1Br [ETRAVIRINE] | 15 | > 2000 |  | > 923 | 6.3 |  |  |  | 
